Results as given in PMC3685705, “Antimicrobial and antiurease activities of newly synthesized morpholine derivatives containing an azole nucleus” (Medicinal Chemistry Research, 2012).
≈ marks a conversion by molar mass, not a printed value. Read-outs that look alike come from different tables or passages of the source.

How the values were obtained:
[1] = system: Escherichia coli ATCC 25922; test: Antimicrobial activity, broth double microdilution MIC; format: cell-based; settings: ATCC25922, pH 7.3, read-out: minimal inhibition concentration, Ec
[2] = system: Yersinia pseudotuberculosis ATCC 911; test: microbe, parasite or virus in culture; format: cell-based; settings: ATCC911, pH 7.3, read-out: minimal inhibition concentration, Yp
[3] = system: Pseudomonas aeruginosa ATCC 43288; test: Antimicrobial activity, broth double microdilution MIC; format: cell-based; settings: ATCC43288, Mueller–Hinton broth pH 7.3, 18–24 h at 35 °C, – = no activity, read-out: minimal inhibition concentration, Pa
[4] = system: Enterococcus faecalis ATCC 29212; test: as above; format: cell-based; settings: ATCC29212, Mueller–Hinton broth pH 7.3, 18–24 h at 35 °C, – = no activity, read-out: minimal inhibition concentration, Ef
[5] = system: Staphylococcus aureus ATCC 25923; test: as above; format: cell-based; settings: ATCC25923, Mueller–Hinton broth pH 7.3, 18–24 h at 35 °C, – = no activity, read-out: minimal inhibition concentration, Sa
[6] = system: Bacillus cereus 702 Roma; test: as above; format: cell-based; settings: pH 7.3, read-out: minimal inhibition concentration, Bc
[7] = system: Mycobacterium smegmatis ATCC 607; test: as above; format: cell-based; settings: Mycolicibacterium smegmatis
[8] = system: Candida albicans ATCC 60193; test: Antifungal activity, broth double microdilution MIC; format: cell-based
[9] = system: S. cerevisiae RSKK 251; test: as above; format: cell-based; settings: Saccharomyces cerevisiae
[10] = molecular target: urease (Canavalia ensiformis, UniProt P07374); test: Urease inhibitory activity (Van Slyke and Archibald)
Chain of urease (P07374 whole entry, looked up): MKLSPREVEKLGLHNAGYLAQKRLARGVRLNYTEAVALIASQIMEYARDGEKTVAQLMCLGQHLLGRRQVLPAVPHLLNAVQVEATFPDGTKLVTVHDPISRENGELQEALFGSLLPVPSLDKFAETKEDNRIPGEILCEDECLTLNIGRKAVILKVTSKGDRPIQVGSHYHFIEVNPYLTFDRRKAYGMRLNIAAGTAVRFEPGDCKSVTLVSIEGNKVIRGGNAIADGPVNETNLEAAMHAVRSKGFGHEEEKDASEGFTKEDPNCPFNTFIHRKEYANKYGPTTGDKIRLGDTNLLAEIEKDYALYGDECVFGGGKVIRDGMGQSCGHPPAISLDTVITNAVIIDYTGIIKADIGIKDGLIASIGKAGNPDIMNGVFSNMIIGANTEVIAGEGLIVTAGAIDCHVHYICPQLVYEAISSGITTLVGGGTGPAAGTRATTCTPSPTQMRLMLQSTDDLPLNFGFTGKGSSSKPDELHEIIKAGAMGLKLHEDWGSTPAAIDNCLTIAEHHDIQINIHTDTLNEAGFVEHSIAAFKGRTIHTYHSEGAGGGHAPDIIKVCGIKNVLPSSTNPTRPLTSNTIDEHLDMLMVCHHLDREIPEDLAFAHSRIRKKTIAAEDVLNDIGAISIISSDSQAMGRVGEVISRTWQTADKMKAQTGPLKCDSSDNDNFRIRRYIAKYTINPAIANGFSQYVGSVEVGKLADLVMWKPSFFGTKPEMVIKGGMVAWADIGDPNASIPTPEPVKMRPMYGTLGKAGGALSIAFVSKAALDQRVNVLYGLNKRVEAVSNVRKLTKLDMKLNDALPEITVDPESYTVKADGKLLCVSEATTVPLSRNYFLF

[11] = system: all the microorganisms; test: Antimicrobial activity in vitro, whole panel; format: cell-based; settings: result in words
[12] = ATCC607, read-out: minimal inhibition concentration, Ms
[13] = Candida albicans, ATCC60193, pH 7, read-out: minimal inhibition concentration, Ca
[14] = RSKK251, pH 7, read-out: minimal inhibition concentration, Sc

SMILES | MIC [7, 12] | MIC [8, 13] | MIC [9, 14] | melting point | IC50 [10] | further results
CC1(C)S[C@@H]2[C@H](NC(=O)[C@H](N)c3ccccc3)C(=O)N2[C@H]1C(=O)O [Amp., Ampicillin, reference compound] |  |  |  |  |  | MIC [1]: 8 µg/mL (≈ 22.9 µM); MIC [2]: 32 µg/mL (≈ 91.6 µM); MIC [3]: > 128 µg/mL; MIC [4]: 2 µg/mL (≈ 5.72 µM); MIC [5]: 2 µg/mL (≈ 5.72 µM); MIC [6]: < 1 µg/mL
CCOC(=O)CNc1ccc(N2CCOCC2)nc1 [Compound 3, Ethyl N-(6-morpholin-4-ylpyridin-3-yl)glycinate] | 125 µg/mL (≈ 471 µM) | 1000 µg/mL (≈ 3770 µM) | 1000 µg/mL (≈ 3770 µM) | 83 to 84 °C | 13.2 ± 2.25 µM | 
NNC(=O)CNc1ccc(N2CCOCC2)nc1 [Compound 4, 2-[6-(Morpholin-4-yl)pyridin-3-ylamino]acetohydrazide] | 125 µg/mL (≈ 497 µM) | 500 µg/mL (≈ 1990 µM) | 1000 µg/mL (≈ 3980 µM) | 175 to 177 °C | 7.92 ± 1.43 µM | 
O=C(CNc1ccc(N2CCOCC2)nc1)N/N=C/c1ccc(Br)cc1 [Compound 5, N-(4-Bromobenzylidene)-2-[6-(morpholin-4-yl)pyridin-3-ylamino]acetohydrazide] | 31.3 µg/mL (≈ 74.8 µM) | 1000 µg/mL (≈ 2390 µM) | 1000 µg/mL (≈ 2390 µM) | 163 to 164 °C | 6.87 ± 0.06 µM | 
O=C(CNc1ccc(N2CCOCC2)nc1)N/N=C/C=C/c1ccccc1 [Compound 6, 2-{[6-(Morpholin-4-yl)pyridin-3-yl]amino}-N-(3-phenylallylidene)acetohydrazide] |  | 500 µg/mL (≈ 1370 µM) | 1000 µg/mL (≈ 2740 µM) | 194 to 195 °C | 8.29 ± 2.3 µM | 
Sc1nnc(CNc2ccc(N3CCOCC3)nc2)o1 [Compound 7, 5-{[(6-Morpholin-4-ylpyridin-3-yl)amino]methyl}-1,3,4-oxadiazole-2-thiol] |  | 500 µg/mL (≈ 1700 µM) | 1000 µg/mL (≈ 3410 µM) | 221 to 222 °C | 7.01 ± 0.68 µM | 
S=c1oc(CNc2ccc(N3CCOCC3)nc2)nn1CN1CCN(c2ccccc2)CC1 [Compound 8, 5-{[(6-Morpholin-4-ylpyridin-3-yl)amino]methyl}-3-[(4-phenylpiperazin-1-yl)methyl]-1,3,4-oxadiazole-2(3H)-thione] | 125 µg/mL (≈ 267 µM) | 1000 µg/mL (≈ 2140 µM) | 1000 µg/mL (≈ 2140 µM) | 87 to 88 °C | 4.99 ± 0.59 µM | MIC [1]: 62.5 µg/mL (≈ 134 µM); MIC [2]: 62.5 µg/mL (≈ 134 µM); MIC [3]: 62.5 µg/mL (≈ 134 µM); MIC [4]: 31.3 µg/mL (≈ 66.9 µM); MIC [5]: 31.3 µg/mL (≈ 66.9 µM); MIC [6]: 62.5 µg/mL (≈ 134 µM); antimicrobial activity against all the microorganisms [11]: active against all the microorganisms
O=C(CNc1ccc(N2CCOCC2)nc1)NNC(=S)Nc1ccccc1 [Compound 9, 2-{[(6-Morpholin-4-ylpyridin-3-yl)amino]acetyl}-N-phenylhydrazinecarbothioamide] | 125 µg/mL (≈ 323 µM) | 1000 µg/mL (≈ 2590 µM) | 1000 µg/mL (≈ 2590 µM) | 171 to 172 °C | 8.07 ± 1.25 µM | 
O=C(CNc1ccc(N2CCOCC2)nc1)N/N=c1\sc(-c2ccc(Cl)cc2)cn1-c1ccccc1 [Compound 10] |  | 500 µg/mL (≈ 960 µM) | 1000 µg/mL (≈ 1920 µM) | 168 to 169 °C | 2.37 ± 0.19 µM | 
Sc1nnc(CNc2ccc(N3CCOCC3)nc2)n1-c1ccccc1 [Compound 11] |  |  |  | 165 to 166 °C |  | 
c1ccc(Nc2nnc(CNc3ccc(N4CCOCC4)nc3)s2)cc1 [Compound 12] |  |  |  | 172 to 173 °C |  | 
O=C(CNc1ccc(N2CCOCC2)nc1)N/N=C1\SCC(=O)N1c1ccccc1 [Compound 13, 2-[(6-Morpholin-4-ylpyridin-3-yl)amino]-N’-(4-oxo-3-phenyl-1,3-thiazolidin-2-ylidene)acetohydrazide] |  | 500 µg/mL (≈ 1170 µM) | 1000 µg/mL (≈ 2340 µM) | 201 to 202 °C | 4.46 ± 0.22 µM | 
OC(Cn1cncn1)(Cn1cncn1)c1ccc(F)cc1F [Flu., Fluconazole, reference compound] |  |  |  |  |  | MIC ([8]; ATCC60193, Candida albicans ATCC 60193, buffered Yeast Nitrogen Base pH 7.0, 18–24 h at 35 °C, read-out: minimal inhibition concentration, Ca): < 8 µg/mL; MIC ([9]; RSKK251, S. cerevisiae RSKK 251, buffered Yeast Nitrogen Base pH 7.0, 18–24 h at 35 °C, read-out: minimal inhibition concentration, Sc): < 8 µg/mL
CN[C@@H]1[C@H](O[C@H]2[C@H](O[C@H]3[C@H](O)[C@@H](O)[C@H](N=C(N)N)[C@@H](O)[C@@H]3N=C(N)N)O[C@@H](C)[C@]2(O)C=O)O[C@@H](CO)[C@H](O)[C@H]1O [Str., Streptomisin, reference compound] |  |  |  |  |  | MIC ([7]; ATCC607, Mycobacterium smegmatis ATCC 607, Brain Heart Infusion broth, 48–72 h at 35 °C, – = no activity, read-out: minimal inhibition concentration, Ms): 4 µg/mL (≈ 6.88 µM)
